Measurements from PMC12122562, “Phase 1 studies of the indenoisoquinolines LMP776 and LMP744 in patients with solid tumors and lymphomas” (Cancer Chemotherapy and Pharmacology, 2025).
“Also recorded” adds a separate entry of the source.

Tested on: patients with advanced, refractory solid tumors or lymphomas
Test: Phase 1 trial of LMP776 (NCT01051635): safety, MTD, adverse events (CTCAE v4.0)
Assay type: in vivo
Source text: The primary objectives of each study included establishing safety, tolerability, MTD, and recommended phase 2 dose (RP2D) of LMP776 and LMP744 as single agents. The LMP744 study included evaluation of tumor pharmacodynamics as an exploratory objective. Both trials were opened at the National Cancer Institute’s (NCI) Developmental Therapeutics Clinic, and the LMP744 trial was also opened at the University of Pittsburgh Hillman Cancer Center. Both trials used an accelerated dose escalation designs (Simon design 4 for LMP776, Simon design 3 for LMP744) to determine the MTD [30]. Dose levels are listed in Supplementary Table 1. Once the MTD was determined, additional patients were enrolled at that DL in an expansion cohort to evaluate pharmacodynamic changes as described below. LMP776 and LMP744 were administered intravenously through a central line via a 1-h infusion on days 1–5 (QDx5) in 28-day cycles. Both agents were supplied by the NCI Division of Cancer Treatment and Diagnosis (DCTD). The studies were approved by the NIH Institutional Review Board and conducted in accordance with the Declaration of Helsinki.
Patients were enrolled in either NCT01051635 evaluating LMP776 or NCT03030417 evaluating LMP744; these trials were conducted sequentially. Both trials required that patients be ≥ 18 years of age with solid tumors or lymphomas refractory to other treatments. Patients were required to have adequate performance status (Eastern Cooperative Oncology Group [ECOG] performance status ≤ 2), bone marrow function, and organ function as described in the Supplementary Methods. Patients in expansion phases at the MTD were required to have disease amenable to biopsy collection and be willing to undergo research biopsies. All patients provided written informed consent.
Tumor responses were evaluated by serial CT scans according to RECIST v1.1 criteria. CT scans were performed every other cycle during the first year, then every 3 cycles after the first year. […] Criteria for all versions can be found at https://ctep.cancer.gov/protocolDevelopment/electronic_applications/ctc.htm. Any patient who received a dose of either agent was considered eligible for toxicity evaluation.

[1] = all DLs, highest grade per patient
[2] = grade 2, DL1-DL2 (n = 8; suppl. DL2, n=7)

Q: Which results are given for `COc1cc2c3c(n(CCCn4ccnc4)c(=O)c2cc1OC)-c1cc2c(cc1C3=O)OCO2` [LMP776]?
A: Grade 3 non-hematologic toxicities (DL8 (16 mg/m^2/day), one patient each): hypokalemia, hyponatremia, and hypophosphatemia; Maximum tolerated dose (MTD) (IV QDx5, 28-day cycles (DL7)): 12 mg/m^2/day; Anemia, grade ≥ 2, prevalence (across all DLs): 50%; Lymphopenia, grade ≥ 2, prevalence (across all DLs): 38%; Thrombocytopenia, grade ≥ 2, prevalence (across all DLs): 18%; Alkaline phosphatase increased, grade ≥ 2, Total (%) (all DLs): 1 (3); Aspartate aminotransferase increased, grade ≥ 2, Total (%) (all DLs): 2 (6); Dehydration, grade ≥ 2, Total (%) (all DLs): 2 (6); Diarrhea, grade ≥ 2, Total (%) (all DLs): 1 (3); Dysgeusia, grade ≥ 2, Total (%) (all DLs): 2 (6); Fatigue, grade ≥ 2, Total (%) (all DLs): 3 (9); Hypercalcemia, grade ≥ 2, Total (%) (all DLs): 1 (3); Hypoalbuminemia, grade ≥ 2, Total (%) (all DLs): 3 (9); Hypoglycemia, grade ≥ 2, Total (%) (all DLs): 1 (3); Hypokalemia, grade ≥ 2, Total (%) (all DLs): 1 (3); Hypomagnesemia, grade ≥ 2, Total (%) (all DLs): 1 (3); Hyponatremia, grade ≥ 2, Total (%) (all DLs): 2 (6); Hypothyroidism, grade ≥ 2, Total (%) (all DLs): 1 (3); Mucositis - oral, grade ≥ 2, Total (%) (all DLs): 1 (3); Nausea, grade ≥ 2, Total (%) (all DLs): 2 (6); Vomiting, grade ≥ 2, Total (%) (all DLs): 1 (3); White blood cell decreased, grade ≥ 2, Total (%) (all DLs): 3 (9); Anemia, grade ≥ 2, Total (%) [1]: 17 (50); Hypophosphatemia, grade ≥ 2, Total (%) [1]: 4 (12); Lymphopenia (Lymphocyte count decreased), grade ≥ 2, Total (%) [1]: 13 (38); Neutropenia, grade ≥ 2, Total (%) [1]: 5 (15); Thrombocytopenia (Platelet count decreased), grade ≥ 2, Total (%) [1]: 6 (18); Patients requiring a dose reduction (enrolled at DL8): One; Anemia, patients [2]: 5; Hypophosphatemia, patients [2]: 1; Lymphopenia (Lymphocyte count decreased), patients [2]: 2; Hypoalbuminemia, patients (grade 2, DL2): 1; Lymphopenia (Lymphocyte count decreased), patients (grade 2, DL3-DL4): 1; Anemia, patients (grade 2, DL3-DL4 (n = 6)): 2; Dehydration, patients (grade 2, DL5-DL6): 1; Diarrhea, patients (grade 2, DL5-DL6): 1; Fatigue, patients (grade 2, DL5-DL6): 1; Neutropenia, patients (grade 2, DL5-DL6): 1; Anemia, patients (grade 2, DL5-DL6 (n = 6)): 3; Aspartate aminotransferase increased, patients (grade 2, DL7): 1; Hypophosphatemia, patients (grade 2, DL7): 1; Anemia, patients (grade 2, DL7 (n = 7)): 1; Aspartate aminotransferase increased, patients (grade 2, DL8): 1; Dehydration, patients (grade 2, DL8): 1; Dysgeusia, patients (grade 2, DL8): 2; Fatigue, patients (grade 2, DL8): 2; Hypoalbuminemia, patients (grade 2, DL8): 2; Hypomagnesemia, patients (grade 2, DL8): 1; Hypophosphatemia, patients (grade 2, DL8): 1; Hypothyroidism, patients (grade 2, DL8): 1; Nausea, patients (grade 2, DL8): 2; Neutropenia, patients (grade 2, DL8): 1; Thrombocytopenia (Platelet count decreased), patients (grade 2, DL8): 1; Vomiting, patients (grade 2, DL8): 1; White blood cell decreased, patients (grade 2, DL8): 1; Anemia, patients (grade 2, all DLs (n=34)): 11; Aspartate aminotransferase increased, patients (grade 2, all DLs (n=34)): 2; Dehydration, patients (grade 2, all DLs (n=34)): 2; Diarrhea, patients (grade 2, all DLs (n=34)): 1; Dysgeusia, patients (grade 2, all DLs (n=34)): 2; Fatigue, patients (grade 2, all DLs (n=34)): 3; Hypercalcemia, patients (grade 2, all DLs (n=34)): 1; Hypoalbuminemia, patients (grade 2, all DLs (n=34)): 3; Hypomagnesemia, patients (grade 2, all DLs (n=34)): 1; Hyponatremia, patients (grade 2, all DLs (n=34)): 2; Hypophosphatemia, patients (grade 2, all DLs (n=34)): 3; Hypothyroidism, patients (grade 2, all DLs (n=34)): 1; Lymphocyte count decreased, patients (grade 2, all DLs (n=34)): 3; Nausea, patients (grade 2, all DLs (n=34)): 2; Neutropenia, patients (grade 2, all DLs (n=34)): 2; Platelet count decreased, patients (grade 2, all DLs (n=34)): 1; Vomiting, patients (grade 2, all DLs (n=34)): 1; White blood cell count decreased, patients (grade 2, all DLs (n=34)): 1; Hypoglycemia, patients (grade 3, DL2): 1; Lymphopenia (Lymphocyte count decreased), patients (grade 3, DL3-DL4): 2; Anemia, patients (grade 3, DL3-DL4 (n = 6)): 1; Lymphopenia (Lymphocyte count decreased), patients (grade 3, DL5-DL6): 1; Alkaline phosphatase increased, patients (grade 3, DL7): 1; Hyponatremia, patients (grade 3, DL7): 1; Lymphopenia (Lymphocyte count decreased), patients (grade 3, DL7): 2; Mucositis - oral, patients (grade 3, DL7): 1; Thrombocytopenia (Platelet count decreased), patients (grade 3, DL7): 1; Anemia, patients (grade 3, DL7 (n = 7)): 1; Hypokalemia, patients (grade 3, DL8): 1; Hyponatremia, patients (grade 3, DL8): 1; Hypophosphatemia, patients (grade 3, DL8): 1; Lymphopenia (Lymphocyte count decreased), patients (grade 3, DL8): 3; Neutropenia, patients (grade 3, DL8): 2; Thrombocytopenia (Platelet count decreased), patients (grade 3, DL8): 3; White blood cell decreased, patients (grade 3, DL8): 1; Anemia, patients (grade 3, DL8 (n = 7)): 4; Alkaline phosphatase increased, patients (grade 3, all DLs (n=34)): 1; Anemia, patients (grade 3, all DLs (n=34)): 6; Hypoglycemia, patients (grade 3, all DLs (n=34)): 1; Hypokalemia, patients (grade 3, all DLs (n=34)): 1; Lymphocyte count decreased, patients (grade 3, all DLs (n=34)): 8; Mucositis - oral, patients (grade 3, all DLs (n=34)): 1; Neutropenia, patients (grade 3, all DLs (n=34)): 2; Platelet count decreased, patients (grade 3, all DLs (n=34)): 3; White blood cell count decreased, patients (grade 3, all DLs (n=34)): 1; Hypercalcemia, patients (grade 4, DL2): 1; Lymphopenia (Lymphocyte count decreased), patients (grade 4, DL8): 2; Neutropenia, patients (grade 4, DL8): 1; Thrombocytopenia (Platelet count decreased), patients (grade 4, DL8): 1; White blood cell decreased, patients (grade 4, DL8): 1; Lymphocyte count decreased, patients (grade 4, all DLs (n=34)): 2; Neutropenia, patients (grade 4, all DLs (n=34)): 1; Platelet count decreased, patients (grade 4, all DLs (n=34)): 1; White blood cell count decreased, patients (grade 4, all DLs (n=34)): 1; Dose-limiting toxicities (DLTs) (in vivo): hypercalcemia, anemia, and hyponatremia; also recorded: Hypercalcemia and hyponatremia were dose-limiting; Nausea, prevalence (in vivo): 6%
